Test results taken from PMC10096453, “One-Pot Synthesis and Evaluation of Antioxidative Stress and Anticancer Properties of an Active Chromone Derivative” (Molecules, 2023).

How the values were obtained:
HeLa cells [1] = assay: Cell migration/invasion scratch assay, HeLa; type: cell-based; conditions: 100 μM, 24 h
Method: Cell migration in the HEK293 and the HeLa cell lines was investigated. The assay was conducted to investigate cell maintenance after being damaged. […] Cells were grown in a 24-well plate until 80% confluence and treated with 2f and 2j for 24 or 48 h compared to the untreated control. The cells in each well were then scratched to create a wound area across the center of the plates using a plastic 20 μL pipette tip. Cell images were taken immediately, and the scratch area was measured at 0, 24, and 48 h. During the experiment, the percentage of wound area was tracked as an indirect assessment. Compared to the control, the percentage of empty area change at each time point was quantified with a Nikon eclipse Ts2R inverted microscope.
Pictures were taken at the start of the experiment (0 h) and 24 h later. […] Scale bars represent 500 μm.

[2] = DPPH radical scavenging assay; type: biochemical; set-up: DPPH517nm % SA ± SD: dose or concentration left out as unconfirmed; conditions: for DPPH517nm % SA ± SD: mean of three measurements; for EC50: read-out: DPPH517nm EC50 ± SD
Source text: (§1) Three in vitro antioxidant assays (DPPH, FRAP, and ABTS) were utilized to evaluate the antioxidant property of the synthesized compounds. The DPPH (α, α-diphenyl-β-picrylhydrazyl) assay is the well-known approach to determine antioxidant activity using a stable free radical DPPH, measure the absorbance change, and calculate the absorbance change in the percentage of scavenging activity. […] For example, the ferric-tripyridyltriazine (Fe^3+-TPTZ, colorless) complex is reduced to ferrous tripyridyltriazine (Fe^2+-TPTZ) at low pH and introduces a blue color with maximum absorption at 593 nm. The change in absorbance is related to antioxidant activity. However, a significant limitation of these in vitro tests is the non-physiological measurement conditions (no enzymatic condition and no transition metal ion chelating activity); therefore, the results obtained may not reflect the antioxidant activity of the source material under the biological conditions that exist in humans and animals. The ABTS assay involves a more drastic radical that is chemically produced. The use of ABTS for antioxidant activity determination of hydrophilic and lipophilic pure compounds has attracted interest due to its solubility in organic and aqueous media and stability in a wide pH range [31].
The DPPH method was followed and modified from a previous study. Trolox was used as a reference. The DPPH stock solution at a concentration of 0.625 mM was prepared in 50% ethanol and kept at 4 °C in the dark. On the day of the experiment, 0.208 mM fresh DPPH working solution was freshly prepared by further diluting with 50% ethanol. […] Each reaction was carried out in a 96-well plate, and 100 μL of test preparation and DPPH solution were added. The 96-well plate was then shaken well for 10 min and kept in the dark at room temperature for 20 min, and the absorbance was recorded at 515–517 nm. According to the method described, delocalization also results in a deep violet color and is quantified as a percentage of scavenging activity. % scavenging activity (SA) = 100 × (Asample − Ablank)/(Acontrol − Ablank)(1) where Acontrol and Asample are the absorbances of the test DPPH without and with a sample, respectively. Ablank is the absorbance of the solvent used. The EC50 values were calculated from the relationship curve of %SA versus sample concentration. The experiment was carried out at least in triplicate.

[3] = ABTS radical cation scavenging assay; type: biochemical; conditions: for EC50: read-out: ABTS734nm EC50 ± SD
Source text: as §1
The ABTS assay was prepared by reaction of 5 mL of a 7 mM aqueous ABTS (2,2′-azino-bis (3-ethylbenzthiazoline-6-sulphonic acid) solution and 2.45 mM potassium persulfate solution (K2S2O8). After preparation and storage in the dark for 16 h, the radical cation solution was further diluted in ethanol to absorb about 0.7 at 734 nm. Trolox and test sample solutions were prepared in stock solution with DMSO and diluted with ethanol. A solution of 100 μL of the sample was mixed with 100 μL of the ABTS reagent in a 96-well plate. The mixture was shaken in a dark place for 10 min and incubated at 37 °C for 20 min, and the absorbance was determined at 734 nm. Absorbance determinations were recorded immediately and not more than 1 h after adding the reagent. The solution without the sample was used as a blank. All the determinations were made in triplicate. The sample’s scavenging percentage was calculated from this equation: scavenging percentage = (Absorbance control − Absorbance sample) × 100/Absorbance control. EC50 values were calculated from the relationship curve of %scavenging versus sample concentration.

HeLa cells [4] = assay: Cellular ROS assay (ROS deep red fluorescence kit); type: cell-based; conditions: pretreatment 50, 100, 150 μM for 24 h; 5 mM H2O2 30 min
Method: ROS is the main contributor to cell death. These reactive molecules are formed by several mechanisms and can be detected by various techniques. In order to investigate the level of cellular ROS after treatment with compounds, the accumulation of intracellular ROS in cells was quantified with a cellular ROS assay kit (ab186029, Abcam, Boston, USA) fluorescence assay. After pretreatment with 2f, 2j, and 3i at 50, 100, and 150 μM for 24 h, cell stress was induced with 5 mM hydrogen peroxide for 30 min. The cells in each well were collected and resuspended with a serum-free medium containing the ROS red probe. Subsequently, cells were incubated at 37 °C for 30 min in the dark, and fluorescence was read at Ex/Em = 650/675 nm.
In this study, Hela cells were seeded overnight at 20,000 cells/90 µL/well in a black wall/clear bottom 96-well plate. Cells included those untreated (control) and those pre-treated with compounds at various concentrations (50, 100, 150 μM) for 24 h. The ROS deep red assay solution (100 μL/well) was added and incubated at 5% CO2, 37 °C incubator for 30 min. The fluorescence signal was monitored at Ex/Em = 650/675 nm (cut off = 665 nm) with bottom read mode within 30 min (cellular ROS assay kit, ab186029, abcam).

HEK293 cells = assay: Protection against H2O2-induced cytotoxicity (MTT); type: cell-based; conditions: 100 μM; HEK293, 7.5 mM H2O2 30 min
Method: The synthesized compounds were examined for the ability of the compounds to protect cells exposed to oxidative stress. Six active compounds from the antioxidant test, 2b, 2d, 2e, 2f, 2j, and 3i, were selected to study the ability of oxidative stress protection. The HEK293 cells were treated with 7.5 mM hydrogen peroxide for 30 min; samples and quercetin were added, and cell viability was investigated at 12 and 24 h treatment. The percentage of viable cells in each sample was calculated using the untreated cell as 100% survival (Figure 3).
Figure 3 Protective effect of synthesized compounds on H2O2-induced cytotoxicity in cultured HEK cells (means ± SD, n = 3). Data (cell viability, measured by the MTT assay) were expressed as a percentage of the control group, which is 100%. The results were calculated from three independent experiments and are shown as mean ± SD. Compared to the H2O2 model group, the p values were calculated using a one-way ANOVA with Tukey (Turkey HSD) multiple comparison analysis; * p < 0.05 at 12 h treatment, # p < 0.05 at 24 h treatment.

EC50 [2] [µM] | EC50 [3] [µM] | Structure (SMILES) | Invasion of HeLa cells (HeLa cells [1]) | DPPH517nm % SA ± SD [2] [%] | ABTS734nm % Scavenging at 500 µM [3] [%] | Cellular ROS fluorescence intensity vs H2O2-treated cells (HeLa cells [4]) | Protection of cells from oxidative stress (HEK293 cells)
18.3 ± 5.62 | 11.4 ± 0.17 | O=c1c(O)c(-c2ccc(O)c(O)c2)oc2cc(O)cc(O)c12 [Quercetin, quercetin, reference compound] | significantly inhibited the invasion of HeLa cells | 93.89 ± 2.04 | 88.51 ± 0.80 | – | –
49.9 ± 11 | 22.2 ± 0.39 | O=C(Oc1ccc2c(=O)c(C(=O)c3ccccc3)c(-c3ccccc3)oc2c1O)c1ccccc1 [2j, 3-Benzoyl-8-hydroxy-4-oxo-2-phenyl-4H-chromen-7-yl benzoate] | significantly inhibited the invasion of HeLa cells | 92.88 ± 0.46 | >95 | significantly reduced | able to protect cells from oxidative stress
34.1 ± 3.28 | 10.2 ± 0.7 | O=C(c1ccccc1)c1c(-c2ccccc2)oc2c(O)c(O)ccc2c1=O [2f, 3-Benzoyl-7,8-dihydroxy-2-phenyl-4H-chromen-4-one] | significantly inhibited the invasion of HeLa cells | 93.55 ± 3.20 | 81.63 ± 1.80 | significantly reduced | able to protect cells from oxidative stress
